Results from patent publication US10159736B2, “Plant virus particles for delivery of photosensitive agents” (Case Western Reserve University, priority 2016, dated 2018).

Tests used:
[1] = test system: B16F10 melanoma cells; experiment: LIVE/DEAD cell viability assay of melanoma cells; format: cell-based; conditions: 5.0 μM, 8 hours, light 30 minutes
Excerpt: The MTT assay is based on a yellow tetrazolium dye that is reduced to purple formazan via NAD(P)H-dependent oxidoreductase enzymes. This reduction is highly dependent on cellular metabolism in the mitochondria and is not high in cells with low cellular metabolic activity. Liu et al., Journal of neurochemistry, 69 (2), 581-93 (1997). Because photosensitizers are known to impact the functionality of the mitochondria, the MTT assay may be compromised as a result of impaired mitochondrial activity. Therefore, LIVE/DEAD cell viability assays were performed to further confirm therapeutic efficacy and cell killing. Cells were incubated with 5.0 μM of free Zn-EpPor or Zn-EpPorTMV, or corresponding controls, for 8 hours, washed, and illuminated for 30 minutes. This drug concentration was based on the MTT assay; it is over four times the IC50 value in B16F10 melanoma and should give maximal cell killing. The LIVE/DEAD assay was applied the next day, imaged, and images were analyzed using ImageJ to determine percent cell viability (FIG. 9B). […] On the contrary, cells exposed to both Zn-EpPor or Zn-EpPorTMV and light had 100% cell killing.
The staining procedure was as per manufacturer's recommendation.

[2] = test system: RAW 264.7 macrophages; experiment: LIVE/DEAD cell viability assay of macrophages after photodynamic therapy; format: cell-based
Protocol: Uptake of PS-CPMV* and its efficacy for PDT of RAW 264.7 murine macrophages was initially tested using a LIVE/DEAD cell viability assay in a 96-well plate. The macrophages were allowed 8 h to take up either PS-CPMV* at a concentration of 5.0 μM PS or CPMV, CPMV*, and PS controls normalized according to PS or CPMV concentration. After washing, PDT was initialized using a mirror setup where light from a projector was reflected on the cell plate for 30 min. Cells were incubated overnight, then stained with a combination of calcein-AM and ethidium homodimer-1 to detect live and dead cells, respectively (FIG. 4a).
RAW 264.7 macrophages were seeded overnight in 96-well plates, with one plate used as a dark control, at a concentration of 10,000 cells/100 μL Dulbecco's modified Eagle's medium (DMEM, Gibco) supplemented with 10% (v/v) fetal bovine serum (FBS, Atlanta Biologicals) and 1% (v/v) penicillin-streptomycin (pen-strep, Life Technologies). Cells were then incubated for 8 h at 37° C. and 5% CO2 with triplicates of CPMV, CPMV*, PS-CPMV*, or PS corresponding to 5.0 μM PS or normalized for nanoparticle concentration accordingly. […] Cell viability was determined using a LIVE/DEAD assay for mammalian cells (Thermo Fisher) following manufacturer's procedures for cell staining and using a Zeiss Axio Observer Z1 motorized FL inverted microscope for imaging. […]

[3] = test system: B16F10 melanoma cells; experiment: MTT cell viability assay after white light illumination (Example II)
Protocol: Untreated cells and drug-free TMV carrier were used as controls. The TMV concentration was normalized to the drug-loaded concentration and corresponded to the highest amount of TMV used to determine the IC50 curves (FIG. 9A). Drug candidates and controls were incubated with B16F10 cells for 8 hours, washed, and then exposed to white light from a Vivitek D950HD projector under a rectangle (10.5 cm×11 cm) for 30 minutes. Following illumination, cells were returned to the incubator for 48 hours. Cell viability was assessed using an MTT cell viability assay and analyzed using GraphPad Prism.
Cell viability was assayed using MTT and LIVE/DEAD assays. Confluent cells were removed using 0.05% (w/v) trypsin-EDTA, added to 96-well plates (100 μL/well, 2×10^4 cells/mL), and grown overnight. Native TMV, drug loaded Zn-EpPorTMV, vs. free Zn-EpPor were added to cells using 0.025, 0.05, 0.1, 0.25, 0.5, 1.0, and 5.0 μM Zn-EpPor; cells were incubated for 8 hours at 37° C. and 5% CO2. Assays were done in triplicates and repeated at least twice. […] Cell viability was assessed using an MTT cell proliferation assay (ATCC); the procedure was as per manufacturer's recommendation. Alternatively, cell viability and cytotoxicity was determined using the LIVE/DEAD Viability/Cytotoxicity Kit for mammalian cells (ThermoFisher). […] Images were analyzed for percentage cell viability using ImageJ 1.47d.

[4] = Storage in the fridge, visual examination; format: physicochemical; conditions: stored in the fridge over a period of a month
[5] = test system: B16F10 melanoma cells; experiment: Flow cytometry of cell uptake (Zn-EpPor fluorescence); format: cell-based; conditions: 10^6 particles/cell or corresponding amount of free drug, 8 hours
Protocol: Cell binding and uptake of the PDT delivery system was measured using both flow cytometry and confocal microscopy. […] Cell uptake was measured as a function of Zn-EpPor fluorescence (FIG. 8A). […] These studies were complemented with confocal microscopy to determine the intracellular fate of Zn-EpPor delivered by TMV. Following an 8-hour incubation of B16F10 cells with Zn-EpPorTMV particles, cells were fixed and stained with wheat germ agglutinin. Confocal fluorescence microscopy confirmed that Zn-EpPor is both taken up by the cells, and also dispersed throughout the cytoplasm (FIG. 8B), allowing it to exert their mechanism of action. The intracellular distribution of the Zn-EpPor drug was consistent with intracellular release of the cargo. We hypothesize that TMV is taken up and trafficked to the endolysosome, as previously reported. Wen et al., Bioconjugate chemistry, 26 (1), 51-62 (2015). […]
Confluent B16F10 cells were removed using Hank's based cell dissociation buffer (ThermoFisher) and added to 96-well v-bottom plates (200 μL/well, 2.5×10^6 cells/mL). […] Cells were washed 2 times, then resuspended in FACS buffer and analyzed on a BD FACSAria flow cytometer. Live cells were gated and 10,000 events were recorded; all experiments were carried out in triplicate. Data were analyzed on FlowJo 8.6.3 software.

[6] = test system: B16F10; conditions: cited from earlier work

C#Cc1ccc(C2=C3C=CC(=N3)C(c3cc[n+](C)cc3)=c3ccc4[n]3[Zn][n]3c2ccc3C(c2cc[n+](C)cc2)=C2C=CC(=N2)C=4c2cc[n+](C)cc2)cc1.[I-].[I-].[I-] [Zn-EpPor, 5-(4-ethynylphenyl)-10,15,20-tris-(4-methylpyridin-4-ium-1-yl)porphyrin-zinc(II) triiodide]
cell killing [1]: 100% | elimination of macrophages after PDT ([2]; 5.0 μM PS, 8 h uptake, light 30 min, staining next day): completely eliminating the macrophages | cytotoxicity in dark controls ([2]; absence of light therapy): no cytotoxicity | IC50 ([3]; 8 hours incubation, white light 30 minutes, MTT after 48 hours, concentration as Zn-EpPor): 0.54 µM | cell killing in the dark ([3]; no illumination): no cell killing was observed | dispersion on storage [4]: aggregation and sedimentation | mean fluorescence intensity (MFI) [5]: 956

C=Cc1c(C)c2cc3nc(c(CC(=O)N[C@@H](CC(=O)O)C(=O)O)c4[nH]c(cc5nc(cc1[nH]2)C(C)=C5CC)c(C)c4C(=O)O)[C@@H](CCC(=O)O)[C@@H]3C [Talaporfin, talaporfin]
IC50 ([6]; B16F10, previously reported): 8.5 µM

porfimir sodium [Photofrin]
efficacy in pigmented melanoma ([6]; melanin-heavy cells, such as the B16F10 cell line): ineffective
